Target: T1, human RORgT (Homo sapiens, UniProt P51449)
T1 construct: expressed in transfected cells
T1 sequence (P51449 267-516): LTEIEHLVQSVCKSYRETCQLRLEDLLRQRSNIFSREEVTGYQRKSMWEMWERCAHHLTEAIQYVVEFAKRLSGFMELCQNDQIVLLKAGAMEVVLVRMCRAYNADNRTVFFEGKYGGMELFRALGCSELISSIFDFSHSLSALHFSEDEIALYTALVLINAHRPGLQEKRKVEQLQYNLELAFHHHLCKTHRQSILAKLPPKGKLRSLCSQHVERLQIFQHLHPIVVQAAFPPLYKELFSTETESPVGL
Assay: RORgT Gal4 Luciferase Reporter Gene Assay
Assay type: cell-based
Conditions: engineered Jurkat cells overexpressing RORgT (LBD or full length) fused with Gal4 Luc reporter; 18 hours at 37° C.; luminescence
How it was run: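 Jurkat cells expressing Gal4 Luc with either RORgT LBD (aa267-516) or full-length human RORgT, 10,000 cells/well, treated with compound (40 µM to 0.67 nM final, 3-fold dilutions) for 18 h at 37° C. Steady-Glo luminescence read; inhibition of constitutive activity as % signal-window reduction relative to a control compound.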

| EC50 [nM] | SMILES |
| --- | --- |
| 111 | COC(=O)[C@H]1CC[C@H](C(=O)N2CC[C@@]3(S(=O)(=O)c4ccc(F)cc4)c4ccc(OCc5cc(Cl)ccc5Cl)cc4CC[C@@H]23)CC1 [Example 203, methyl (1r,4r)-4-[(3aR,9bR)-7-[(2,5-dichlorophenyl)methoxy] -9b-(4-fluorobenzenesulfonyl)-1H,2H,3H,3aH,4H,5H,9bH-benzo[e]indole-3-carbonyl] cyclohexane-1-carboxylate] |
| 76 | CN1CCC(C(=O)N2CC[C@@]3(S(=O)(=O)c4ccc(F)cc4)c4ccc(OCc5cc(Cl)ccc5Cl)cc4CC[C@@H]23)CC1 [Example 204, 4-[(3aR,9bR)-7-[(2,5-dichlorophenyl)methoxy]-9b-(4-fluorobenzenesulfonyl)-1H,2H,3H,3aH,4H,5H,9bH-benzo[e]indole-3-carbonyl]-1-methylpiperidine] |
| 9.5 | O=C(O)[C@H]1CC[C@H](C(=O)N2CC[C@@]3(S(=O)(=O)c4ccc(F)cc4)c4ccc(OCc5cc(Cl)ccc5Cl)cc4CC[C@@H]23)CC1 [Example 205, (1r,4r)-4-[(3aR,9bR)-7-[(2,5-dichlorophenyl)methoxy] -9b-(4-fluorobenzenesulfonyl)-1H,2H,3H,3aH,4H,5H,9bH-benzo[e]indole-3-carbonyl]cyclohexane-1-carboxylic acid] |
| 216 | CN1CCC(C(=O)N2CC[C@@]3(S(=O)(=O)c4ccc(F)cc4)c4ccc(OCc5ccc(F)cc5Cl)cc4CC[C@@H]23)CC1 [Example 206, 4-[(3aR,9bR)-7-[(2-chloro-4-fluorophenyl)methoxy]-9b-(4-fluorobenzenesulfonyl)-1H,2H,3H,3aH,4H,5H,9bH-benzo[e]indole-3-carbonyl]-1-methylpiperidine] |
| 28 | CC(=O)N1CCC(C(=O)N2CC[C@@]3(S(=O)(=O)c4ccc(F)cc4)c4ccc(OCc5ccc(F)cc5Cl)cc4CC[C@@H]23)CC1 [Example 207, 1-{4-[(3aR,9bR)-7-[(2-chloro-4-fluorophenyl)methoxy]-9b-(4-fluorobenzenesulfonyl)-1H,2H,3H,3aH,4H,5H,9bH-benzo[e]indole-3-carbonyl]piperidin-1-yl}ethan-1-one] |
| 162 | CS(=O)(=O)CC(=O)N1CC[C@@]2(S(=O)(=O)c3ccc(F)cc3)c3ccc(OCc4cc(Cl)ccc4Cl)cc3CC[C@@H]12 [Example 208, 1-[(3 aR,9bR)-7-[(2,5-dichlorophenyl)methoxy] -9b-(4-fluorobenzenesulfonyl)-1H,2H,3H,3aH,4H,5H,9bH-benzo[e]indol-3-yl]-2-methanesulfonylethan-1-one] |
| 124 | NS(=O)(=O)CC(=O)N1CC[C@@]2(S(=O)(=O)c3ccc(F)cc3)c3ccc(OCc4cc(Cl)ccc4Cl)cc3CC[C@@H]12 [Example 209, 2-[(3aR,9bR)-7-[(2,5-dichlorophenyl)methoxy]-9b-(4-fluorobenzenesulfonyl)-1H,2H,3H,3aH,4H,5H,9bH-benzo[e]indol-3-yl]-2-oxoethane-1-sulfonamide] |
| 9.9 | NC(=O)N1CCC(C(=O)N2CC[C@@]3(S(=O)(=O)c4ccc(F)cc4)c4ccc(OCc5cc(F)c(F)cc5Cl)cc4CC[C@@H]23)CC1 [Example 210, 4-[(3aR,9bR)-7-[(2-chloro-4,5-difluorophenyl)methoxy]-9b-(4-fluorobenzenesulfonyl)-1H,2H,3H,3aH,4H,5H,9bH-benzo[e]indole-3-carbonyl] piperidine-1-carboxamide] |
| 110 | NS(=O)(=O)CC(=O)N1CC[C@@]2(S(=O)(=O)c3ccc(F)cc3)c3ccc(OCc4cc(F)c(F)cc4Cl)cc3CC[C@@H]12 [Example 211, 2-[(3aR,9bR)-7-[(2-chloro-4,5-difluorophenyl)methoxy]-9b-(4-fluorobenzenesulfonyl)-1H,2H,3H,3aH,4H,5H,9bH-benzo[e]indol-3-yl]-2-oxoethane-1-sulfonamide] |
| 160 | CN1CCC(C(=O)N2CC[C@@]3(S(=O)(=O)c4ccc(F)cc4)c4ccc(OCc5cc(F)c(F)cc5Cl)cc4CC[C@@H]23)CC1 [Example 212, 4-[(3aR,9bR)-7-[(2-chloro-4,5-difluorophenyl)methoxy]-9b-(4-fluorobenzenesulfonyl)-1H,2H,3H,3aH,4H,5H,9bH-benzo[e]indole-3-carbonyl]-1-methylpiperidine] |
